From patent US10946074B2, “GLP-1 derivatives and uses thereof” (Novo Nordisk A/S, priority 2016, dated 2021)
Read-outs that look alike come from different tables or passages of the source. Starred links: 1 amine or outer side, 2 acyl side, 3 side chain; linkers in the order of their positions; H or OH if unused. Residues, ends and D or L forms follow the SMILES beside them. Groups on a side chain read outwards from the residue. *: point of attachment. γGlu = O=C(O)[C@H](CCC(=O)[*:2])N[*:1]; C14 diacid = O=C(O)CCCCCCCCCCCCC(=O)*; AEEA = NCCOCCOCC(=O)O

Assays:
[1] = target: T1, human GLP-1 receptor (Homo sapiens, UniProt P43220); test: In vitro potency, CRE luciferase reporter gene assay in BHK cells expressing the human GLP-1 receptor; format: cell-based; details: 3 h, 0% HSA, average of at least three replicates
T1 construct: expressed in transfected cells; host or cells: membranes of BHK cells (parent BHKTS13), clone FCW467-12A
Protocol: When assay incubation is completed the luciferase substrate (luciferin) is added and the enzyme converts luciferin to oxyluciferin to produce bioluminescence. The luminescence is measured as the readout for the assay.
The cells were cultured at 5% CO2 in cell culture medium. They were aliquoted and stored in liquid nitrogen. Before each assay an aliquot was taken up and washed twice in PBS before being suspended at the desired concentration in the assay specific buffer. For 96-well plates the suspension was made to give a final concentration of 5×10^3 cells/well.
Assay medium consisted of DMEM w/o phenol red, 10 mM Hepes and 1× Glutamax. The assay buffer consisted of 2% w/v ovalbumin and 0.2% v/v Pluronic F-68 in assay medium.
3) Cells were counted and adjusted to 5×10^3 cells/50 μl (1×10^5 cells/ml) in assay medium. A 50 μl aliquot of cells was transferred to each well in the assay plate.
4) Stocks of the test compounds and reference compounds were diluted to a concentration of 0.2 μM in assay buffer. […] Compounds were tested at the following final concentrations: 1×10^−7 M, 1×10^−8 M; 1×10^−9 M, 1×10^−10 M, 1×10^−11 M, 1×10^−12 M, 1×10^−13 M, and 1×10^−14 M. 6) The assay plate was incubated for 3 h in a 5% CO2 incubator at 37° C. […] 8) A 100 μl aliquot of steadylite plus reagent was added to each well of the assay plate. 9) Each assay plate was covered with aluminum foil to protect it from light and shaken for 30 min at room temperature. 10) Each assay plate was read in a BioTek Synergy 2 Multi-Mode Reader. Calculations and Results
The data from the BioTek Synergy 2 Multi-Mode Reader were transferred to GraphPad Prism software. The software performs a non-linear regression (log(agonist) vs. response (three parameters)).
A minimum of three replicates were measured for each sample. The reported EC50 values are averages of the measured values for each compound.

[2] = target: T1, human GLP-1 receptor; test: GLP-1 receptor binding, competitive binding assay with 125I-GLP-1 on isolated membranes (SPA)
Protocol: The receptor binding is reported as the concentration at which half of the labelled ligand is displaced from the receptor, the IC50 value.
Buffer 1 consisted of 20 mM Na-HEPES plus 10 mM EDTA and pH was adjusted to 7.4. Buffer 2 consisted of 20 mM Na-HEPES plus 0.1 mM EDTA and pH was adjusted to 7.4. Assay buffer consisted of 50 mM HEPES supplemented with 5 mM EGTA, 5 mM MgCl2, 0.005% w/v Tween 20 and pH was adjusted to 7.4. An 8% albumin stock consisted of HSA dissolved at 8% (w/v) in assay buffer. An 0.02% albumin stock consisted of HSA dissolved at 0.02% (w/v) in assay buffer.
To make a membrane preparation the cells were grown to approximately 80% confluence. The cells were washed twice in phosphate-buffered saline and harvested. The cells were pelleted using a brief centrifugation and the cell pellet was kept on ice. The cell pellet was homogenised with ULTRA-THURRAX™ dispersing instrument for 20-30 seconds in a suitable amount of buffer 1 (e.g., 10 ml). The homogenate was centrifuged for 15 minutes. The pellet was re-suspended (homogenised) in 10 ml buffer 2 and centrifuged. This step was repeated once more. The resulting pellet was re-suspended in buffer 2 and the protein concentration was determined. The membranes were aliquoted and stored at minus 80° C.
For the receptor binding assay in the presence of low HSA (0.005% (w/v)) 50 μl of the assay buffer was added to each well of an assay plate. Assay continued with step 3.
For the receptor binding assay in the presence of high HSA (2% (w/v)) 50 μl of the 8% (w/v) albumin stock was added to each well of an assay plate. Assay continued with step 3.
Cell membrane aliquots were thawed and diluted to their working concentration. Fifty μl were added to each well in the assay plate.
WGA SPA beads were suspended in assay buffer at 20 mg/ml. The suspension was diluted to 10 mg/ml in assay buffer just prior to addition to the assay plate. Fifty μl were added to each well in the assay plate.
A 25 μl aliquot was reserved for measuring total counts/well.
The assay plate was incubated for 2 h at 30° C.
The assay plate was centrifuged for 10 min.
The assay plate was read in a Packard TopCount NXT instrument.
Individual replicates were analysed using non-linear regression in GraphPad Prism. IC50 values were calculated by the software and reported in nM. A minimum of two replicates was measured for each sample. The reported values are averages of all of the measured values for each compound.

[3] = high HSA (2.0% (w/v) final assay concentration), read-out: GLP-1 receptor binding High HSA IC50
[4] = low HSA (max. 0.001% (w/v) final assay concentration), read-out: GLP-1 receptor binding Low HSA IC50

T1 sequence (P43220 24-463): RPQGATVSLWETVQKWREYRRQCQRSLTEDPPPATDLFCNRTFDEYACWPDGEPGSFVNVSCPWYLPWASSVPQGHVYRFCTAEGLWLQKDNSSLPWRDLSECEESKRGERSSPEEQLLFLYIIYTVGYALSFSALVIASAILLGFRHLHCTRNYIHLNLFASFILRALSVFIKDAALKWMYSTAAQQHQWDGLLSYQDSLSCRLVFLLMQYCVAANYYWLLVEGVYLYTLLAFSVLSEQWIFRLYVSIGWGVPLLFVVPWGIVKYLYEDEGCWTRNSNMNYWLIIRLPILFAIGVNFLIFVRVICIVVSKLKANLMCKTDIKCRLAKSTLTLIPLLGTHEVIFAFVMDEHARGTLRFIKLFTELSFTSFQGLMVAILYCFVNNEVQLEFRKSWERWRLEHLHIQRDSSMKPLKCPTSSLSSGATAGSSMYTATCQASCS

SMILES	EC50 [1] [pM]	IC50 [2, 3] [nM]	IC50 [2, 4] [nM]	IC50 ([2]; GLP-1 receptor binding Low HSA IC50 (nM), low HSA (max. 0.001% (w/v) final assay concentration)) [nM]
CC[C@H](C)[C@H](NC(=O)[C@H](Cc1ccccc1)NC(=O)[C@H](CCC(=O)O)NC(=O)[C@H](CCCNC(=N)N)NC(=O)[C@H](C)NC(=O)[C@H](C)NC(=O)[C@H](CCC(N)=O)NC(=O)[C@H](CCC(=O)O)NC(=O)[C@H](CCC(=O)O)NC(=O)[C@H](CC(C)C)NC(=O)[C@H](Cc1ccc(O)cc1)NC(=O)[C@H](CO)NC(=O)[C@H](CO)NC(=O)[C@@H](NC(=O)[C@H](CC(=O)O)NC(=O)[C@H](CO)NC(=O)[C@@H](NC(=O)[C@H](Cc1ccccc1)NC(=O)[C@@H](NC(=O)CNC(=O)[C@H](CCC(=O)O)NC(=O)C(C)(C)NC(=O)[C@@H](N)Cc1c[nH]cn1)[C@@H](C)O)[C@@H](C)O)C(C)C)C(=O)N[C@@H](C)C(=O)N[C@@H](Cc1c[nH]c2ccccc12)C(=O)N[C@@H](CC(C)C)C(=O)N[C@H](C(=O)N[C@@H](CCCNC(=N)N)C(=O)NCC(=O)N[C@@H](CCCCNC(=O)COCCOCCNC(=O)COCCOCCNC(=O)COCCOCCNC(=O)COCCOCCNC(=O)CC[C@H](NC(=O)CCCCCCCCCCCCC(=O)O)C(=O)O)C(=O)N[C@@H](CCCCNC(=O)COCCOCCNC(=O)COCCOCCNC(=O)COCCOCCNC(=O)COCCOCCNC(=O)CC[C@H](NC(=O)CCCCCCCCCCCCC(=O)O)C(=O)O)C(=O)O)C(C)C [Comparative 7A]	2.6	31.5	0.744	
CC[C@H](C)[C@H](NC(=O)[C@H](Cc1ccccc1)NC(=O)[C@H](CCC(=O)O)NC(=O)[C@H](CCCNC(=N)N)NC(=O)[C@H](C)NC(=O)[C@H](C)NC(=O)[C@H](CCC(N)=O)NC(=O)[C@H](CCC(=O)O)NC(=O)[C@H](CCC(=O)O)NC(=O)[C@H](CC(C)C)NC(=O)[C@H](Cc1ccc(O)cc1)NC(=O)[C@H](CO)NC(=O)[C@H](CO)NC(=O)[C@@H](NC(=O)[C@H](CC(=O)O)NC(=O)[C@H](CO)NC(=O)[C@@H](NC(=O)[C@H](Cc1ccccc1)NC(=O)[C@@H](NC(=O)CNC(=O)[C@H](CCC(=O)O)NC(=O)C(C)(C)NC(=O)[C@@H](N)Cc1c[nH]cn1)[C@@H](C)O)[C@@H](C)O)C(C)C)C(=O)N[C@@H](C)C(=O)N[C@@H](Cc1c[nH]c2ccccc12)C(=O)N[C@@H](CC(C)C)C(=O)N[C@H](C(=O)N[C@@H](CCCNC(=N)N)C(=O)NCC(=O)N[C@@H](CCCCNC(=O)COCCOCCNC(=O)COCCOCCNC(=O)CC[C@H](NC(=O)CCCCCCCCCOc1cccc(C(=O)O)c1)C(=O)O)C(=O)N[C@@H](CCCCNC(=O)COCCOCCNC(=O)COCCOCCNC(=O)CC[C@H](NC(=O)CCCCCCCCCOc1cccc(C(=O)O)c1)C(=O)O)C(=O)O)C(C)C [Comparative 1A]	8.1	116	0.318	
CC[C@H](C)[C@H](NC(=O)[C@H](Cc1ccccc1)NC(=O)[C@H](CCC(=O)O)NC(=O)[C@H](CCCNC(=N)N)NC(=O)[C@H](C)NC(=O)[C@H](C)NC(=O)[C@H](CCC(N)=O)NC(=O)[C@H](CCC(=O)O)NC(=O)[C@H](CCC(=O)O)NC(=O)[C@H](CC(C)C)NC(=O)[C@H](Cc1ccc(O)cc1)NC(=O)[C@H](CO)NC(=O)[C@H](CO)NC(=O)[C@@H](NC(=O)[C@H](CC(=O)O)NC(=O)[C@H](CO)NC(=O)[C@@H](NC(=O)[C@H](Cc1ccccc1)NC(=O)[C@@H](NC(=O)CNC(=O)[C@H](CCC(=O)O)NC(=O)[C@H](Cc1c[nH]c2ccccc12)NC(=O)[C@@H](N)Cc1c[nH]cn1)[C@@H](C)O)[C@@H](C)O)C(C)C)C(=O)N[C@@H](C)C(=O)N[C@@H](Cc1c[nH]c2ccccc12)C(=O)N[C@@H](CC(C)C)C(=O)N[C@H](C(=O)N[C@@H](CCCNC(=N)N)C(=O)NCC(=O)N[C@@H](CCCCNC(=O)COCCOCCNC(=O)COCCOCCNC(=O)COCCOCCNC(=O)COCCOCCNC(=O)CC[C@H](NC(=O)CCCCCCCCCCCCC(=O)O)C(=O)O)C(=O)N[C@@H](CCCCNC(=O)COCCOCCNC(=O)COCCOCCNC(=O)COCCOCCNC(=O)COCCOCCNC(=O)CC[C@H](NC(=O)CCCCCCCCCCCCC(=O)O)C(=O)O)C(=O)O)C(C)C [Example 7] (H-HWEGTFTSDVSSYLEEQAAREFIAWLVRGK([AEEA-AEEA-AEEA-AEEA-γGlu-C14 diacid])K([AEEA-AEEA-AEEA-AEEA-γGlu-C14 diacid])-OH; N-terminus and C-terminus assumed)	5.6	71		
CC[C@H](C)[C@H](NC(=O)[C@H](Cc1ccccc1)NC(=O)[C@H](CCC(=O)O)NC(=O)[C@H](CCCNC(=N)N)NC(=O)[C@H](C)NC(=O)[C@H](C)NC(=O)[C@H](CCC(N)=O)NC(=O)[C@H](CCC(=O)O)NC(=O)[C@H](CCC(=O)O)NC(=O)[C@H](CC(C)C)NC(=O)[C@H](Cc1ccc(O)cc1)NC(=O)[C@H](CO)NC(=O)[C@H](CO)NC(=O)[C@@H](NC(=O)[C@H](CC(=O)O)NC(=O)[C@H](CO)NC(=O)[C@@H](NC(=O)[C@H](Cc1ccccc1)NC(=O)[C@@H](NC(=O)CNC(=O)[C@H](CCC(=O)O)NC(=O)C(C)(C)NC(=O)[C@@H](N)Cc1c[nH]cn1)[C@@H](C)O)[C@@H](C)O)C(C)C)C(=O)N[C@@H](C)C(=O)N[C@@H](Cc1c[nH]c2ccccc12)C(=O)N[C@@H](CC(C)C)C(=O)N[C@H](C(=O)N[C@@H](CCCNC(=N)N)C(=O)NCC(=O)N[C@@H](CCCNC(=N)N)C(=O)N[C@@H](CCCCNC(=O)[C@H](CCCCNC(=O)COCCOCCNC(=O)COCCOCCNC(=O)COCCOCCNC(=O)COCCOCCNC(=O)COCCOCCNC(=O)COCCOCCNC(=O)CC[C@H](NC(=O)[C@H]1CC[C@H](CNC(=O)CCCCCCCCCCCCCCCCCCC(=O)O)CC1)C(=O)O)NC(=O)COCCOCCNC(=O)COCCOCCNC(=O)COCCOCCNC(=O)COCCOCCNC(=O)COCCOCCNC(=O)COCCOCCNC(=O)CC[C@H](NC(=O)[C@H]1CC[C@H](CNC(=O)CCCCCCCCCCCCCCCCCCC(=O)O)CC1)C(=O)O)C(=O)O)C(C)C [Comparative 10A]	16.8	108	0.591	
CC[C@H](C)[C@H](NC(=O)[C@H](Cc1ccccc1)NC(=O)[C@H](CCC(=O)O)NC(=O)[C@H](CCCNC(=N)N)NC(=O)[C@H](C)NC(=O)[C@H](C)NC(=O)[C@H](CCC(N)=O)NC(=O)[C@H](CCC(=O)O)NC(=O)[C@H](CCC(=O)O)NC(=O)[C@H](CC(C)C)NC(=O)[C@H](Cc1ccc(O)cc1)NC(=O)[C@H](CO)NC(=O)[C@H](CO)NC(=O)[C@@H](NC(=O)[C@H](CC(=O)O)NC(=O)[C@H](CO)NC(=O)[C@@H](NC(=O)[C@H](Cc1ccccc1)NC(=O)[C@@H](NC(=O)CNC(=O)[C@H](CCC(=O)O)NC(=O)C(C)(C)NC(=O)[C@@H](N)Cc1c[nH]cn1)[C@@H](C)O)[C@@H](C)O)C(C)C)C(=O)N[C@@H](C)C(=O)N[C@@H](Cc1c[nH]c2ccccc12)C(=O)N[C@@H](CC(C)C)C(=O)N[C@H](C(=O)N[C@@H](CCCNC(=N)N)C(=O)NCC(=O)N[C@@H](CCCNC(=N)N)C(=O)N[C@@H](CCCCNC(=O)COCCOCCNC(=O)COCCOCCNC(=O)[C@H](CCCCNC(=O)COCCOCCNC(=O)COCCOCCNC(=O)COCCOCCNC(=O)COCCOCCNC(=O)CC[C@H](NC(=O)[C@H]1CC[C@H](CNC(=O)CCCCCCCCCCCCCCCCCCC(=O)O)CC1)C(=O)O)NC(=O)COCCOCCNC(=O)COCCOCCNC(=O)COCCOCCNC(=O)COCCOCCNC(=O)CC[C@H](NC(=O)[C@H]1CC[C@H](CNC(=O)CCCCCCCCCCCCCCCCCCC(=O)O)CC1)C(=O)O)C(=O)O)C(C)C [Comparative 12A]	13.7	42.3	0.536	
CC[C@H](C)[C@H](NC(=O)[C@H](Cc1ccccc1)NC(=O)[C@H](CCC(=O)O)NC(=O)[C@H](CCCNC(=N)N)NC(=O)[C@H](C)NC(=O)[C@H](C)NC(=O)[C@H](CCC(N)=O)NC(=O)[C@H](CCC(=O)O)NC(=O)[C@H](CCC(=O)O)NC(=O)[C@H](CC(C)C)NC(=O)[C@H](Cc1ccc(O)cc1)NC(=O)[C@H](CO)NC(=O)[C@H](CO)NC(=O)[C@@H](NC(=O)[C@H](CC(=O)O)NC(=O)[C@H](CO)NC(=O)[C@@H](NC(=O)[C@H](Cc1ccccc1)NC(=O)[C@@H](NC(=O)CNC(=O)[C@H](CCC(=O)O)NC(=O)[C@H](Cc1c[nH]c2ccccc12)NC(=O)[C@@H](N)Cc1c[nH]cn1)[C@@H](C)O)[C@@H](C)O)C(C)C)C(=O)N[C@@H](C)C(=O)N[C@@H](Cc1c[nH]c2ccccc12)C(=O)N[C@@H](CC(C)C)C(=O)N[C@H](C(=O)N[C@@H](CCCNC(=N)N)C(=O)NCC(=O)N[C@@H](CCCNC(=N)N)C(=O)N[C@@H](CCCCNC(=O)COCCOCCNC(=O)COCCOCCNC(=O)CN(CCCNC(=O)COCCOCCNC(=O)COCCOCCNC(=O)COCCOCCNC(=O)COCCOCCNC(=O)CC[C@H](NC(=O)[C@H]1CC[C@H](CNC(=O)CCCCCCCCCCCCCCCCCCC(=O)O)CC1)C(=O)O)CCCNC(=O)COCCOCCNC(=O)COCCOCCNC(=O)COCCOCCNC(=O)COCCOCCNC(=O)CC[C@H](NC(=O)[C@H]1CC[C@H](CNC(=O)CCCCCCCCCCCCCCCCCCC(=O)O)CC1)C(=O)O)C(=O)O)C(C)C [Example 13]				0.818
